Measured values reported in patent US4935509A (priority 1989, dated 1990).
Like-named read-outs stand apart in the source and are kept apart here.

What was measured:
OM-1 = experiment: MTT cell count (ID50), human colon cancer cell line OM-1; assay type: cell-based; details: 144 h, read-out: ID50 OM-1
Description: (§1) In the various assays set forth below the colorimetric determination of the number of cells was carried out by the following procedure using MTT.
(§2) 3-(4,5-dimethylthiazol-2-yl)-2,5-dipenyl tetrazolium bromide (MTT) was prepared as a 5 mg/ml stock solution in phosphate buffered saline, filtered through a 0.22 μm filter and stored for up to two weeks at 4° C. while protected from light. For use in the assay it was diluted to 1 mg/ml in a pH 7.2 solution of phenol-red-free RPMI 1640 tissue culture medium supplemented with 1 mM sodium pyruvate and 50 μg/ml gentamycin. The assay was done in flat bottomed 96-well microtiter plates. Culture medium was removed from the wells by inverting and blotting the plate, fifty μl of MTT solution was added to the cells in each well, and each plate was incubated at 37° C. in an atmosphere of 5% CO2 in air. After incubation, each plate was centrifuged for 5 minutes at 8000×g and excess MTT removed by inverting and blotting. Fifty μl of 95% ethanol was added to each well and the plate was shaken (speed 6.5 for 15 minutes) to solubilize the formazan in each well. The optical density of each well was measured using an automatic plate reader with a test wavelength of 570 nm and a reference wavelength of 630 nm.
(§3) The in vitro effects of the novel compounds as compared to vinblastine and vincristine on three human colon cancer cell lines and one non-transformedhuman cell line were determined by the following procedure.
(§4) The non-transformed human fibroblast cell line, WI-38 and two of the human colon cancer cell lines, COLO-320-DM and HT-29, were obtained from the American Type Culture Collection, Rockville, MD and the third human colon cancer cell line, OM-1, was supplied by E. I. du Pont de Nemours and Co., Inc., Glenholden, PA. Both OM-1 and COLO-320-DM cells were maintained by serial passage in RPMI 1640 tissue culture medium supplemented to 10% (v/v) with heat-inactivated FBS. HT-29 cells were similarly maintained in McCoys 5A tissue culture medium supplemented with 10% heat-inactivated FBS. COLO-320-DM cells were detached by gentle scraping while HT-29 and OM-1 cells were detached using 0.25% trypsin and 0.05% trypsin, 0.5 mM EDTA solutions respectively. All cultures were incubated at 37° C. in a humidified environment of 5% CO2 in air. Experiments were conducted in 96-well flat-bottomed plates. The initial cell seeds per well for each cell line were 4,000 for WI- 38; 2,000 for COLO-320-DM; 750 for HT-29; and 3,000 for OM-1, each in the appropriate tissue culture medium. Cells were plated 24 hours before test compound was added to allow cells to recover from the effects of physical scraping and trypsinization. Varying log10 dilutions of drug were added to triplicate sets of wells and cultures were incubated for 6 days at 37° in a humidified atmosphere of 5% CO2 in air. The number of cells per well at the end of the experiment was determined colorimetrically by the reduction of MTT as described above and the results for each compounds shown in Table II. For purposes of comparison, the concentration of each test compound required to reduce the final cell number to one-half of the number in drug-free control cultures (ID50) is shown in Table II.

P388 wild-type cells = experiment: MTT cell count (ID50), P388 wild-type leukemia cells in vitro; assay type: cell-based, murine; details: Mus musculus, read-out: ID50 P388/Wild
Description: as §1, §2
(§5) The differential in vitro activity of the above compounds as compared to vincristine and vinblastine with regard to P388 wild-type and P388 multiple-drug resistant leukemia was carried out by the following procedure.
(§6) Tissue culture-adapted lines of the P388 wild-type and P388 multiple-drug resistant cells (principally resistant to adriamycin) were obtained from the American Type Culture Collection, Rockville, MD. Experiments were conducted in 96-well microtiter plates with 300 cells from either line seeded in a volume of 200 μl of tissue culture medium (RPMI 1640 supplemented to 10% (v/v) with heat-inactivated fetal bovine serum (FBS) and to […] with 1-glutamine). Cells and varying log^10 dilutions of test compound were added to triplicate sets of wells on the same day and cultures were incubated for 5 days at 37° C. in a humidified atmosphere of 5% CO2 in air. The number of cells per well at the end of the experiment was determined colorimetrically by the reduction of MTT as described above.

[1] = system: P388 multiple-drug resistant cells; experiment: cells; assay type: cell-based, murine; details: for Fold-resistance: ID50 resistant cell line divided by ID50 wildtype cell line, 7200 min; for IC50: Mus musculus, read-out: ID50 P3/88/resist.
Description: as §1, §2, §5, §6

P388 leukemia [2] = experiment: Increase in mean survival time of mice bearing P388 leukemia; assay type: in vivo; details: i.p.; for Increase in MST: vs vehicle
Description: The efficacy of the remaining compounds is clearly documented by the fact that each increased the mean survival time of tumor-bearing mice in a dose-dependentmanner. […] The percent increase in mean survival time (MST) which appears in Table IV was calculated by the following formula: [formula]

COLO-320-DM = experiment: MTT cell count (ID50), human colon cancer cell line COLO-320-DM; assay type: cell-based; details: 144 h, read-out: ID50 COLO-320
Description: as §1, §2, §3, §4

WI-38 fibroblast = experiment: MTT cell count (ID50), non-transformed human fibroblast cell line WI-38; assay type: cell-based; design: unit not given here; details: 6 days incubation
Description: as §1, §2, §3, §4

[3] = In vivo effect against P388 leukemia in mice (TD50, ED50, T.I.); details: mouse, in vivo, ip
From the text: (§7) The in vivo effect of the novel compounds of this invention against P388 leukemia as compared to vinblastine and vincristine, were compared by the following procedure.
(§8) P388 murine leukemia cells were obtained from Southern Research Institute, Birmingham, Ala., and were maintained by serial i.p. passage in C57BL/6 mice. Female (C57BL/6×DBA/2) F1 (BDF) mice of 6-8 weeks of age from Jackson Laboratories, Bar Harbor, Maine, received 1×10^6 P388 cells by i.p. inoculation on day 0. Compounds were dissolved in saline and administered i.p. to 10 tumor-bearing mice per dose level on days 0-4 and 7-9 using 5 to 10 log2 dilutions from a concentration known to be toxic. […] The therapeutic index (T.I.) for each compound was calculated by the formula: [formula]

P388 leukemia [4] = experiment: as above; details: for T.I. (therapeutic index): calculated from TD50 and ED50; for ED50: Mus musculus, P388, ip; for cured tumor-bearing mice at doses which were not toxic: P388 leukemia mice, non-toxic doses
From the text: as §7, §8

HT-29 = experiment: MTT cell count (ID50), human colon cancer cell line HT-29; assay type: cell-based; details: HT-29, 144 h, read-out: ID50 HT-29
Description: as §1, §2, §3, §4

[5] = read-out: ED50 (extrapolated values)
[6] = 120 h, P388 wild-type, 5 days incubation, MTT
[7] = 120 h, P388 multiple-drug-resistant (principally adriamycin), 5 days incubation, MTT

Compound | IC50 (OM-1) | IC50 (P388 wild-type cells; P388, 120 h) | Fold-resistance [1] | IC50 ([1]; P388, 120 h) | IC50 (COLO-320-DM) | ID50 WI-38 fibroblast (WI-38 fibroblast) | LD50 [3] | T.I. (therapeutic index) (P388 leukemia [4]) | IC50 (HT-29) | ED50 (P388 leukemia [4]) | other results
CC[C@]12C=CCN3CC[C@@]4(c5cc([C@@]6(C(=O)OC)C[C@H]7CN(CCc8c6[nH]c6ccccc86)Cc6ccccc67)c(OC)cc5N(C)[C@H]4[C@@](O)(C(=O)OC)[C@@H]1OC(C)=O)[C@@H]32 [A, (9R,11S)-15-[1,2,4,9,10,11,12,17-octahydro-11-(methoxycarbonyl)-indolo(2',3':6,7)azonino(1,2,3-bc)isoquinolin-11-yl]vindoline] | 0.4 µM | 0.095 µM | 4 | 0.4 µM | 0.4 µM | 4 × 10^-7 | 0.28 mg/kg | < 1 | 0.03 µM |  | Mean Survival Time (P388 leukemia [2]; 0.12 mg/kg (optimal dose), vehicle 9.6 days (A), 10.1 days (E)): 19.7 days; Increase in MST (P388 leukemia [2]; 0.12 mg/kg (optimal dose)): 105%
CC[C@]12C=CCN3CC[C@@]4(c5cc([C@@]6(C(=O)OC)C[C@H]7CN(CCc8c6[nH]c6ccccc86)C[C@H]6CCCC[C@H]67)c(OC)cc5N(C)[C@H]4[C@@](O)(C(=O)OC)[C@@H]1OC(C)=O)[C@@H]32 [C, (4aS,8aR,9R,11S)-15-[1,2,4,4a,5,6,7,8,8a,9,10,11,12,17-tetradecahydro-11-(methoxycarbonyl)-indolo(2',3':6,7,)azonino(1,2,3-bc)isoquinolin-11-yl]vindoline] | 0.4 µM | 0.22 µM | 4 | 0.85 µM | 0.4 µM | 5 × 10^-7 | 0.1 mg/kg | 1.0 | 0.3 µM |  | Mean Survival Time (P388 leukemia [2]; 0.06 mg/kg (optimal dose), vehicle 10.1 days): 21.1 days; Increase in MST (P388 leukemia [2]; 0.06 mg/kg (optimal dose)): 109%; ED50 (P388 leukemia [4]; [5]): 0.1 mg/kg
CC[C@]12C=CCN3CC[C@@]4(c5cc([C@@]6(C(=O)OC)C[C@H]7CN(CCc8c6[nH]c6ccccc86)Cc6ccccc67)c(OC)cc5N(C=O)[C@H]4[C@@](O)(C(=O)OC)[C@@H]1OC(C)=O)[C@@H]32 [Compound B, (9R,11S)-15-[1,2,4,9,10,11,12,17-octahydro-11-(methoxycarbonyl)-indolo(2',3':6,7)azonino(1,2,3-bc)isoquinolin-11-yl]N-demethyl-N-formylvindoline] | 0.06 µM | 0.047 µM | 11 | 0.51 µM | 0.3 µM | 1 × 10^-7 | 0.092 mg/kg | 4.6 | 0.02 µM | 0.02 mg/kg | cured tumor-bearing mice at doses which were not toxic (P388 leukemia [4]): 50%
CC[C@]12C=CCN3CC[C@@]4(c5cc([C@@]6(C(=O)OC)C[C@H]7CN(CCc8c6[nH]c6ccccc86)C[C@@H]6CCCC[C@H]76)c(OC)cc5N(C=O)[C@H]4[C@@](O)(C(=O)OC)[C@@H]1OC(C)=O)[C@@H]32 [Compound F, (4aR,8aS,9R,11S)-15-[1,2,4,4a,5,6,7,8,8a,9,10,11,12,17-tetradecahydro-11-(methoxycarbonyl)-indolo(2',3':6,7,)azonino(1,2,3-bc)isoquinolin-11-yl]N-demethyl-N-formylvindoline] | 0.02 µM | 0.038 µM | 12 | 0.45 µM | 0.4 µM | 1 × 10^-7 | 0.045 mg/kg | 2.8 | 0.03 µM | 0.016 mg/kg | cured tumor-bearing mice at doses which were not toxic (P388 leukemia [4]): 50%
CC[C@]12C=CCN3CC[C@@]4(c5cc([C@@]6(C(=O)OC)C[C@H]7CN(CCc8c6[nH]c6ccccc86)C[C@H]6CCCC[C@H]67)c(OC)cc5N(C=O)[C@H]4[C@@](O)(C(=O)OC)[C@@H]1OC(C)=O)[C@@H]32 [D, (4aS,8aR,9R,11S)-15-[1,2,4,4a,5,6,7,8,8a,9,10,11,12,17-tetradecahydro-11-(methoxycarbonyl)-indolo(2',3':6,7,)azonino(1,2,3-bc)isoquinolin-11-yl]N-demethyl-N-formylvindoline] | 0.06 µM | 0.055 µM | 36 | 2 µM | 0.4 µM | 4 × 10^-7 | 0.045 mg/kg | 1.1 | 0.04 µM |  | Mean Survival Time (P388 leukemia [2]; 0.015 mg/kg (optimal dose), vehicle 10.7 days): 26.5 days; Increase in MST (P388 leukemia [2]; 0.015 mg/kg (optimal dose)): 148%; ED50 (P388 leukemia [4]; [5]): 0.043 mg/kg
CC[C@]1(O)C[C@@H]2CN(CCc3c([nH]c4ccccc34)[C@@](C(=O)OC)(c3cc4c(cc3OC)N(C)[C@H]3[C@@](O)(C(=O)OC)[C@H](OC(C)=O)[C@]5(CC)C=CCN6CC[C@]43[C@@H]65)C2)C1 [Vinblastine, reference compound] |  |  | 16 |  |  | 5 × 10^-8 | 0.79 mg/kg | 1.9 |  | 0.41 mg/kg | IC50 (OM-1; 6 days incubation, MTT): 0.05 µM; IC50 (P388 wild-type cells; [6]): 0.019 µM; IC50 [1, 7]: 0.31 µM; IC50 (COLO-320-DM; 6 days incubation, MTT): 0.05 µM; IC50 (HT-29; 6 days incubation, MTT): 0.03 µM
CC[C@]1(O)C[C@H]2CN(CCc3c([nH]c4ccccc34)[C@@](C(=O)OC)(c3cc4c(cc3OC)N(C=O)[C@H]3[C@@](O)(C(=O)OC)[C@H](OC(C)=O)[C@]5(CC)C=CCN6CC[C@]43[C@@H]65)C2)C1 [Vincristine, reference compound] |  |  | 57 |  |  | 7 × 10^-8 | 1 mg/kg | 5.9 |  | 0.17 mg/kg | IC50 (OM-1; 6 days incubation, MTT): 0.05 µM; IC50 (P388 wild-type cells; [6]): 0.0072 µM; IC50 [1, 7]: 0.41 µM; IC50 (COLO-320-DM; 6 days incubation, MTT): 0.4 µM; IC50 (HT-29; 6 days incubation, MTT): 0.03 µM
